# Patent US20210236442A1, “METHODS FOR DELAYING OCCURRENCE OF NEW-ONSET TYPE 2 DIABETES AND FOR SLOWING PROGRESSION OF AND TREATING TYPE 2 DIABETES” (Dalcor Pharma UK Ltd., Leatherhead, Zug Branch, priority 2018, published 2021)
# What was measured:
# Type in all cases: in vivo, human
# [1] = tested on: patients enrolled in the dal-OUTCOMES trial; assay: Repeated measures mixed model regression of treatment arm for fasting plasma glucose and whole-blood HbA1c per genotype and diabetes status; settings: all rs1967309 genotypes, diabetic and non-diabetic, with and without age and sex; except AG diabetic patients
# Excerpt: (§1) The effect of ADCY9 rs1967309 genotypes on patient HbA1C and glucose levels was retrospectively assessed in patients enrolled in the dal-OUTCOMES trial.
# Inclusion Criteria: Patients 45 years of age or older who provided written informed consent were eligible to participate if they had been hospitalized for an acute coronary syndrome characterized by elevated cardiac biomarkers, with symptoms of acute myocardial ischemia, ischemic electrocardiographic abnormalities that were new or presumed to be new, or loss of viable myocardium on imaging. Patients without elevated cardiac biomarkers were eligible to participate if symptoms of acute myocardial ischemia were accompanied by electrocardiographic changes that were new or presumed to be new and by additional evidence of obstructive coronary disease. […] However, no specific statin agent or dose was specified, and patients were not excluded if their LDL cholesterol level remained above 100 mg per deciliter. There were no exclusions on the basis of patients' HDL cholesterol level. […] The patients began a single-blind placebo-based run-in period of approximately 4 to 6 weeks to allow for patients to stabilize and for completion of any planned revascularization procedures. […]
# [2] = tested on: patients enrolled in the dal-OUTCOMES trial; assay: Descriptive statistics of glucose and HbA1c, reported and change from baseline, by genotype and treatment arm; settings: non-diabetic patients irrespective of rs1967309 genotype
# Excerpt: as §1
# Inclusion Criteria: Patients 45 years of age or older who provided written informed consent were eligible to participate if they had been hospitalized for an acute coronary syndrome characterized by elevated cardiac biomarkers, with symptoms of acute myocardial ischemia, ischemic electrocardiographic abnormalities that were new or presumed to be new, or loss of viable myocardium on imaging. Patients without elevated cardiac biomarkers were eligible to participate if symptoms of acute myocardial ischemia were accompanied by electrocardiographic changes that were new or presumed to be new and by additional evidence of obstructive coronary disease. […] However, no specific statin agent or dose was specified, and patients were not excluded if their LDL cholesterol level remained above 100 mg per deciliter. There were no exclusions on the basis of patients' HDL cholesterol level. […]
# Descriptive statistics of reported and change from baseline of glucose and HbA1C according to the genotype of the SNP rs1967309 were analyzed for each treatment arm and for diabetic and non-diabetic patients separately with non-parametric statistics.
# [3] = tested on: patients of the dal-OUTCOMES trial; assay: GLM of dalcetrapib treatment arm for whole-blood HbA1c at 6, 12 and 24 months
# Procedure: The effect of dalcetrapib on whole-blood HbA1c levels irrespective of genotype and the impact of dalcetrapib on risk of new onset diabetes were retrospectively assessed in patients of the dal-OUTCOMES trial. The descriptive statistics and analyses were performed using SAS 9.4 software. Diabetes at baseline was defined based on at least one of the following patient criteria: (1) diagnosis of diabetics at baseline in the dal-OUTCOMES trial; (2) whole-blood HbA1c level>=6.5% at baseline; (3) fasting glucose level>=7.0 mmol/L at baseline; and (4) use of diabetes medication at or before baseline. GLM results of the dalcetrapib treatment arm for whole-blood HbA1c at 6,12, and 24 months (“M06”, “M12” and “M24”, respectively) were obtained.
# [4] = tested on: uncontrolled diabetic patients of the dal-OUTCOMES trial; assay: Effect of dalcetrapib on whole-blood HbA1c in uncontrolled diabetics
# Procedure: The effect of dalcetrapib in uncontrolled diabetics defined once as HbA1c>7% at baseline or once as >7.5% at baseline was retrospectively assessed in patients of the dal-OUTCOMES trial. The descriptive statistics and analyses were performed using SAS 9.4 software. Two populations of uncontrolled diabetics at baseline were defined: patients having a whole-blood HbA1c level of >7 (n=437) and patients having a whole-blood HbA1c level of >7.5 (n=280).
smiles,measurement,setting,value
CCC(CC)CC1(C(=O)Nc2ccccc2SC(=O)C(C)C)CCCCC1 [dalcetrapib],significance of dalcetrapib treatment arm for outcome HbA1c,[1],significant
same,HbA1c change from baseline compared to placebo,[2],greater reductions in HbA1c
same,whole-blood level of HbA1c with dalcetrapib treatment compared to placebo,[2],systematically lower
same,"β dalcetrapib, Ln(HbA1c)","[3]; All, HBA1C_M06, Table 12, adjustment not stated",−0.0137
same,"β dalcetrapib, Ln(HbA1c)","[3]; All, HBA1C_M06, first block, adjusted for baseline HbA1c",−0.0143
same,"β dalcetrapib, Ln(HbA1c)","[3]; All, HBA1C_M12, Table 12, adjustment not stated",−0.0152
same,"β dalcetrapib, Ln(HbA1c)","[3]; All, HBA1C_M12, first block, adjusted for baseline HbA1c",−0.0160
same,"β dalcetrapib, Ln(HbA1c)","[3]; All, HBA1C_M24, Table 12, adjustment not stated",−0.0170
same,"β dalcetrapib, Ln(HbA1c)","[3]; All, HBA1C_M24, first block, adjusted for baseline HbA1c",−0.0176
same,association of dalcetrapib treatment arm with whole-blood HbA1c levels,"[3]; M06, M12, M24, all patients combined and each rs1967309 genotype, with and without age and sex",associated with decrease in whole-blood HbA1c levels
same,"β dalcetrapib, Ln(HbA1c)","[3]; genotype = AA, HBA1C_M06, Table 12, adjustment not stated",−0.0192
same,"β dalcetrapib, Ln(HbA1c)","[3]; genotype = AA, HBA1C_M06, first block, adjusted for baseline HbA1c",−0.0196
same,"β dalcetrapib, Ln(HbA1c)","[3]; genotype = AA, HBA1C_M12, Table 12, adjustment not stated",−0.0112
same,"β dalcetrapib, Ln(HbA1c)","[3]; genotype = AA, HBA1C_M12, first block, adjusted for baseline HbA1c",−0.0116
same,"β dalcetrapib, Ln(HbA1c)","[3]; genotype = AA, HBA1C_M24, Table 12, adjustment not stated",−0.0172
same,"β dalcetrapib, Ln(HbA1c)","[3]; genotype = AA, HBA1C_M24, first block, adjusted for baseline HbA1c",−0.0171
same,"β dalcetrapib, Ln(HbA1c)","[3]; genotype = AG, HBA1C_M06, Table 12, adjustment not stated",−0.0113
same,"β dalcetrapib, Ln(HbA1c)","[3]; genotype = AG, HBA1C_M06, first block, adjusted for baseline HbA1c",−0.0123
same,"β dalcetrapib, Ln(HbA1c)","[3]; genotype = AG, HBA1C_M12, Table 12, adjustment not stated",−0.0143
same,"β dalcetrapib, Ln(HbA1c)","[3]; genotype = AG, HBA1C_M12, first block, adjusted for baseline HbA1c",−0.0156
same,"β dalcetrapib, Ln(HbA1c)","[3]; genotype = AG, HBA1C_M24, Table 12, adjustment not stated",−0.0139
same,"β dalcetrapib, Ln(HbA1c)","[3]; genotype = AG, HBA1C_M24, first block, adjusted for baseline HbA1c",−0.0153
same,"β dalcetrapib, Ln(HbA1c)","[3]; genotype = GG, HBA1C_M06, Table 12, adjustment not stated",−0.0145
same,"β dalcetrapib, Ln(HbA1c)","[3]; genotype = GG, HBA1C_M06, first block, adjusted for baseline HbA1c",−0.0145
same,"β dalcetrapib, Ln(HbA1c)","[3]; genotype = GG, HBA1C_M12, Table 12, adjustment not stated",−0.0185
same,"β dalcetrapib, Ln(HbA1c)","[3]; genotype = GG, HBA1C_M12, first block, adjusted for baseline HbA1c",−0.0186
same,"β dalcetrapib, Ln(HbA1c)","[3]; genotype = GG, HBA1C_M24, Table 12, adjustment not stated",−0.0214
same,"β dalcetrapib, Ln(HbA1c)","[3]; genotype = GG, HBA1C_M24, first block, adjusted for baseline HbA1c",−0.0210
same,"β dalcetrapib, Ln(HbA1c)","[3]; genotype_group = AA + AG, HBA1C_M06, Table 12, adjustment not stated",−0.0133
same,"β dalcetrapib, Ln(HbA1c)","[3]; genotype_group = AA + AG, HBA1C_M06, first block, adjusted for baseline HbA1c",−0.0141
same,"β dalcetrapib, Ln(HbA1c)","[3]; genotype_group = AA + AG, HBA1C_M12, Table 12, adjustment not stated",−0.0135
same,"β dalcetrapib, Ln(HbA1c)","[3]; genotype_group = AA + AG, HBA1C_M12, first block, adjusted for baseline HbA1c",−0.0146
same,"β dalcetrapib, Ln(HbA1c)","[3]; genotype_group = AA + AG, HBA1C_M24, Table 12, adjustment not stated",−0.0147
same,"β dalcetrapib, Ln(HbA1c)","[3]; genotype_group = AA + AG, HBA1C_M24, first block, adjusted for baseline HbA1c",−0.0157
same,"β dalcetrapib, Ln(HbA1c)","[3]; genotype_group = GG, HBA1C_M06, Table 12, adjustment not stated",−0.0145
same,"β dalcetrapib, Ln(HbA1c)","[3]; genotype_group = GG, HBA1C_M06, first block, adjusted for baseline HbA1c",−0.0145
same,"β dalcetrapib, Ln(HbA1c)","[3]; genotype_group = GG, HBA1C_M12, Table 12, adjustment not stated",−0.0185
same,"β dalcetrapib, Ln(HbA1c)","[3]; genotype_group = GG, HBA1C_M12, first block, adjusted for baseline HbA1c",−0.0186
same,"β dalcetrapib, Ln(HbA1c)","[3]; genotype_group = GG, HBA1C_M24, Table 12, adjustment not stated",−0.0214
same,"β dalcetrapib, Ln(HbA1c)","[3]; genotype_group = GG, HBA1C_M24, first block, adjusted for baseline HbA1c",−0.0210
same,mean ln(HbA1c) in the dalcetrapib treatment arm,"[3]; versus placebo arm, adjusting for baseline HbA1c",lower than in the placebo arm
same,association of treatment arm (dalcetrapib versus placebo) with whole-blood HbA1c at M06,"[4]; HbA1c >7 at baseline, genotype rs1967309/AA, without adjustment for covariates, significance level 5%",associated with a decrease in whole-blood HbA1c
same,"repeated measures analysis, natural logarithm of HbA1C at 6, 12 and 24 months","[4]; uncontrolled diabetic patients, mixed regression models",confirmed by repeated measures analysis
same,mean ln(HbA1c) in the dalcetrapib treatment arm,"[4]; uncontrolled diabetics, versus placebo arm",lower than in the placebo arm
